Measurements: paper PMC6476888, “Design and synthesis of anticancer 1-hydroxynaphthalene-2-carboxanilides with a p53 independent mechanism of action” (Scientific Reports, 2019)
Values joined by “and” are separate entries in the source; they are usually repeats but may differ in a detail not shown here. Equal values may be shown once. “Also recorded” adds a separate entry of the source.

Legend:
CT-DNA = assay: Spectrophotometric DNA intercalation assay; assay type: binding, calf; conditions: for Changes in absorbance: bound to CT-DNA (18 µM), 1.5 h 37 °C, Tris-HCl pH 7.9; for % hypochromism / Δε: bound to CT-DNA, for CP-31398 first value (312 nm band); for red shift: wavelengths of maximum absorption, individual vs DNA-bound compound
Text: The fused aromatic rings of the naphthalene moiety and halogen substituents in aniline may guarantee good intercalating properties[71],[72]. On the other hand, the intercalation of DNA may explain the high activity against both the wild-type and p53 mutants as was reported for a series of styrylquinolines. Binding to DNA causes the bases to mismatch or cleave, which results in the arrest of the cell cycle and apoptosis. The effectiveness of the p53 system is one of the most important factors in the response to therapy. We tested the intercalating properties of the selected compounds in a spectrophotometric assay on calf-thymus DNA. The absorption spectra of the tested compounds in the absence and presence of CT-DNA are presented in Figure S1 Supplementary Information and the spectral properties with doxorubicine and CP-31398 are summarized in Table 2.
For the DNA binding studies, Calf-thymus DNA (CT-DNA) was purchased from Sigma- Aldrich. The lyophilized CT-DNA was dissolved in 10 mM Tris-HCl, pH 7.9, mixed gently and left overnight at 4 °C. The purity of the CT-DNA solution was determined by measuring the ratio of UV absorbance at 260 and 280 nm. […] Then, the concentration of CT-DNA was determined from the absorbance at 260 nm using an extinction coefficient of 6600 M^−1cm^−1. The tested compounds including DOX and CP-31398 were dissolved to a concentration of 8.35 mM in DMSO, which was then used as the stock solution for preparing the various concentrations (25, 12.5, 6 and 3 µM) in 1 mL in 10 mM of Tris-HCl (pH 7.9). Afterwards, 18 µM CT-DNA was added to the prepared solutions, which were incubated for 1.5 h at 37 °C with occasional vortexing. The absorption spectra were measured using a Hitachi U-2900 spectrophotometer in the range of 200–500 nm. All absorption spectra were imported into OriginPro 8.0 and compared.

[1] = tested on: p53/p21 system in the HCT116 cells; assay: Western blot of p53/p21 activation; assay type: cell-based, human
Experimental: Further exploration of the cell death model was performed by a western blot analysis of protein activation in response to incubation with the tested compound (Figs 6, 7). […] The proapoptotic activation of the p53/p21 system was noticeable after the first 12 hours and then became stronger after 24 h. This effect was not observed in the case of the p53 null cells, which were unable to synthesize this protein.
The HCT116 cells were seeded in 3-cm Petri dishes (Nunc) at a density of 0.5·10^6 cells/well and incubated overnight. […] The cells were harvested by trypsinization and washed with cold PBS. Next, the cells were centrifuged and suspended in an RIPA buffer (Thermo-Fisher Scientific) containing Halt Protease Inhibitor Cocktail (Thermo-Fisher Scientific), Halt Phosphatase Inhibitor Cocktail (Thermo-Fisher Scientific) along with 0.5 M EDTA and lysed for 20 min on ice. Then, the lysates were sonicated, centrifuged at 10,000 rpm for 10 min at 4 °C and the supernatants were collected for further analysis. The protein concentration was determined using a Micro BCA™ Protein Assay Kit (Thermo-Fisher Scientific, Waltham, MA, USA c) according to the manufacturer’s instructions. Equal amounts of the proteins (20 μg) were electrophoresed on SDS-Page gels and transferred onto nitrocellulose membranes. The membranes were blocked in 5% non-fat milk prepared in PBS containing 0.1% Tween-20 (TPBS) for 1 h. After blocking, the membranes were incubated with specific primary antibodies: p21^Waf1/Cip1, p53, cytochrome c, caspase-8, caspase-9, AIF, PARP, GAPDH and β-Actin overnight at 4 °C, and then washed and incubated with horseradish peroxidase (HRP)-conjugated secondary antibodies for 1 h at room temperature. All of the antibodies were purchased from CellSignaling (Danvers, MA, USA) and were diluted 1:1000 in 5% milk in TPBS. Finally, the membranes were washed and incubated with a SuperSignal™ West Pico Chemiluminescent Substrate (Thermo-Fisher Scientific). The chemiluminescence signals were captured using a ChemiDoc™ XRS+ System (Bio-Rad Laboratories, Hercules, CA, USA). The experiments were performed at least three times. Densitometric analysis was performed using ImageJ 1.41 software (Wayne Rasband, National Institutes of Health, USA).

[2] = p53 null cells, after the first 12 hours

Row | Compound | Changes in absorbance (CT-DNA) | % hypochromism (CT-DNA) | Δε (CT-DNA) | red shift (CT-DNA) | p21 protein amount [1, 2] | p21 protein amount ([1]; either of the lines tested)
1 | O=C(Nc1cc(C(F)(F)F)cc(C(F)(F)F)c1Cl)c1ccc2ccccc2c1O [5u] | hypochromism | 14% | 922.2 M⁻¹ cm⁻¹ | small red-shift and 2 nm | small, insignificant increase | –
2 | O=C(Nc1ccc(F)c(Cl)c1)c1ccc2ccccc2c1O [5s] | hypochromism | 6.5% | 255.6 M⁻¹ cm⁻¹ | 2 nm | small, insignificant increase | –
3 | O=C(Nc1cc(C(F)(F)F)cc(C(F)(F)F)c1)c1ccc2ccccc2c1O [7f] | rather low hypochromic effect; also recorded: hypochromism | 5.7% | 244.4 M⁻¹ cm⁻¹ | no wavelength shift and 0 nm | – | did not increase p21
